{
  "source": "patent US10493089B2",
  "about": "“Solid composition comprising amorphous sofosbuvir” (priority 2014, dated 2019)",
  "origin": "cited, not measured here",
  "data": [
    {"compound": "CC(C)OC(=O)[C@H](C)N[P@](=O)(OC[C@H]1O[C@@H](n2ccc(=O)[nH]c2=O)[C@](C)(F)[C@@H]1O)Oc1ccccc1", "note": "[sofosbuvir, (S)-isopropyl 2-(((S)-(((2R,3R,4R,5R)-5-(2,4-dioxo-3,4-dihydropyrimidin-1(2H)-yl)-4-fluoro-3-hydroxy-4-methyltetrahydrofuran-2-yl)methoxy)(phenoxy)phosphoryl)amino)propanoate]", "values": [
      {"measurement": "behaviour under stress conditions", "setting": "40° C., relative humidity 75%", "result": "deliquesces after a few hours"}
    ]},
    {"compound": "CC(C)OC(=O)[C@H](C)N[P@](=O)(OC[C@H]1O[C@@H](n2ccc(=O)[nH]c2=O)[C@](C)(F)[C@@H]1O)Oc1ccccc1", "note": "[Amorphous sofosbuvir]", "values": [
      {"measurement": "relative humidity at which it deliquesces", "setting": "amorphous form compared to crystalline forms", "result": "above 50%"}
    ]}
  ]
}
